Read-outs that look alike come from different tables or passages of the source. Blank lines part the entries; values can stand above or below the molecule they belong to.
How the values were obtained:
[1] = system: protein kinases; settings: judged by similar criteria; cited from earlier work
[2] = biological target: BcLxL (1-209, Δ45-84, N-terminal GST-fused) (UniProt Q07817); assay: single round of affinity selection of the DNA-linked peptide on GST-Bcl-xL on glutathione beads; restriction digestion
[3] = system: panel of 58 commercially available human protein kinases; assay: Kinase selectivity panel, Invitrogen SelectScreen; type: biochemical
Description: Macrocycle cis-A11-B1-C5-D7 was assayed at 50 μM against a representative panel of 58 commercially available human protein kinases including all nine mammalian Src family kinases (Table 8).
(§1) Src IC50 determinations and single-point inhibition measurements were performed using Invitrogen's Z′-LYTE Tyr 02 assay kit according to the manufacturer's protocols. All kinase assays were performed at ATP concentrations near KM,ATP values, except where noted otherwise. Active human Src kinase was obtained from Millipore. For kinome profiling and IC50 determinations against non-Src kinases, compounds were submitted to Invitrogen's SelectScreen Kinase Profiling Service.

[4] = biological target: T1, HCK (Homo sapiens, UniProt P08631); assay: Continuous spectrophotometric kinase activity assay; type: biochemical; design: Kinase domain constructs of human c-Abl (residues 229-512), chicken c-Src (residues 251-533 and residues 83-533), murine Lck (residues 227-509), and human Hck (residues 166-445); made in house
From the text: (§2) Kinase domain constructs of human c-Abl (residues 229-512), chicken c-Src (residues 251-533 and residues 83-533), murine Lck (residues 227-509), and human Hck (residues 166-445) were expressed as previously described (Seeliger, Young et al. 2005; Seeliger, Nagar et al. 2007; the entire contents of each of which are incorporated by reference herein). Mutations were introduced into chicken c-Src (residues 251-533) (T338I, C277Q, L297M) by site-directed mutagenesis and verified by DNA sequencing.
(§3) In vitro kinase inhibition assays were performed using either a continuous spectrophotometric assay or a FRET-based endpoint assay.
(§4) The original characterization of kinase inhibition was performed with a commercial kinase assay that relies on a fluorescently labeled peptide kinase substrate (Z-LYTE, Invitrogen). For further characterization, a continuous spectrophotometric kinase activity assay was employed that is easily adapted to different substrate peptides as well as a wider range of peptide and ATP concentrations.
Target sequence in this assay (P08631 262-515 limits assumed): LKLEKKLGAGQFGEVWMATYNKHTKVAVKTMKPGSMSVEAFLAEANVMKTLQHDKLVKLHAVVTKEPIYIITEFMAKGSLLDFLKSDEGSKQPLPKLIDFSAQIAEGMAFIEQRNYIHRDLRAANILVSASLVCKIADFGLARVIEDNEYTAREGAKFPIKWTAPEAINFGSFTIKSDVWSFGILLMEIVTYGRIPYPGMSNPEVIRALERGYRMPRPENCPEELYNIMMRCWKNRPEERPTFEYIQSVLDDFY

[5] = biological target: T2, AURKA (Aurora A) (Homo sapiens, UniProt O14965); assay: SelectScreen kinase profiling; type: biochemical
T2 sequence (O14965 1-403): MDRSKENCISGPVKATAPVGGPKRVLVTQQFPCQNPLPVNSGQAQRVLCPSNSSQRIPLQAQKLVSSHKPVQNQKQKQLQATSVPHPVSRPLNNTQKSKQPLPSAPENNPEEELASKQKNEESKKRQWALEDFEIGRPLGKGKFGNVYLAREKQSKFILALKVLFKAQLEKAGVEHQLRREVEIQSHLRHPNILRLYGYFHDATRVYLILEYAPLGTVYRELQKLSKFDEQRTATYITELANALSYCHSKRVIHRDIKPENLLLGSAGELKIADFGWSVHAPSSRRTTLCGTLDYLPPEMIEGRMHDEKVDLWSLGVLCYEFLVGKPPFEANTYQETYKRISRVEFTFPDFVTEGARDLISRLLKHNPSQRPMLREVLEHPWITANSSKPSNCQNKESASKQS
Description: as §1

[6] = biological target: RET (Homo sapiens, UniProt P07949); assay: SelectScreen kinase profiling; type: biochemical; settings: 10-point titration
Sequence of RET (P07949 29-1114): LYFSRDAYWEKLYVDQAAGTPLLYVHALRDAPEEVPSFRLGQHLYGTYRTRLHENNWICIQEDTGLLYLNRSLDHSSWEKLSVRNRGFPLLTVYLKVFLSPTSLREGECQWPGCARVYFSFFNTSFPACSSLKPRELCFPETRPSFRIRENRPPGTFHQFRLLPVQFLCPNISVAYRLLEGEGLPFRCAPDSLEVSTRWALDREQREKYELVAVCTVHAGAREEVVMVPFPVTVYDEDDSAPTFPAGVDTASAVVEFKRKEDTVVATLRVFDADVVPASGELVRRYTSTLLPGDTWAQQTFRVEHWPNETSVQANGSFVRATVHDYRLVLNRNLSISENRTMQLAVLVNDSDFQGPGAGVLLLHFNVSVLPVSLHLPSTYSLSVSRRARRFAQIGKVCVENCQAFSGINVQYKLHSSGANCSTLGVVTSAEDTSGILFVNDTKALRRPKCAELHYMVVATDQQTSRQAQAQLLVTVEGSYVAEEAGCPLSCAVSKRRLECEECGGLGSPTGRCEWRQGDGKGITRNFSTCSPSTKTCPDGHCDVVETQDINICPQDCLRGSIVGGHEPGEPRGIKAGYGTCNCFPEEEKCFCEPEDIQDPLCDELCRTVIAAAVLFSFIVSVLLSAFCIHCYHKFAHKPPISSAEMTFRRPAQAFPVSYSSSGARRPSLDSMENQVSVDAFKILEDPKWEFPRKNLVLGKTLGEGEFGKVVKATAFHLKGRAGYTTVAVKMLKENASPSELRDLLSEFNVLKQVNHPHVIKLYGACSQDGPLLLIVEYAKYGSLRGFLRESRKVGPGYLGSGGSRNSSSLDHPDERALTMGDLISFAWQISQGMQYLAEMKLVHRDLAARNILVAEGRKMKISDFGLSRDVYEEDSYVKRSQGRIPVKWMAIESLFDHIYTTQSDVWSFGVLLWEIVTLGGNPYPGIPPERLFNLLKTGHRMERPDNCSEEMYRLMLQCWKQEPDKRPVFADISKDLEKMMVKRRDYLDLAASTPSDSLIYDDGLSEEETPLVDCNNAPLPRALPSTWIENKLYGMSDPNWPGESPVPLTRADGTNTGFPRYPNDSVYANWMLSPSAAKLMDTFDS
Description: as §1

[7] = biological target: FYN (Homo sapiens, UniProt P06241); assay: SelectScreen kinase profiling; type: biochemical
Sequence of FYN (P06241 whole entry): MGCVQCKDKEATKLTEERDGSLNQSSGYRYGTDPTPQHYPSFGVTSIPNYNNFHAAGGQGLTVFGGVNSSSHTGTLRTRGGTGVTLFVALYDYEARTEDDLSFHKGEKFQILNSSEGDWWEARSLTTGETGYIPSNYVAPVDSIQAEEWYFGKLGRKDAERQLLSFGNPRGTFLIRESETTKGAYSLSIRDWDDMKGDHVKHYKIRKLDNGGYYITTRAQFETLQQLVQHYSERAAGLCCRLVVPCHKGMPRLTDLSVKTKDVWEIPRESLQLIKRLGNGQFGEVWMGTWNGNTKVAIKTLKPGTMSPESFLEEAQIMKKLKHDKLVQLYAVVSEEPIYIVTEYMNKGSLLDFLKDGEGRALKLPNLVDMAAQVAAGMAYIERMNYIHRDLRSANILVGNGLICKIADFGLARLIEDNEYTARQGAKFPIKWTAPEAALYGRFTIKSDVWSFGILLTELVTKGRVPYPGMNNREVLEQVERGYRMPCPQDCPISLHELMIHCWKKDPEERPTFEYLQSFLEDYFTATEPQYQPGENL
Description: as §1

[8] = biological target: T1, HCK; assay: SelectScreen kinase profiling; type: biochemical
Description: as §1

[9] = biological target: FGR (Homo sapiens, UniProt P09769); assay: SelectScreen kinase profiling; type: biochemical; settings: Fgr; 10-point titration
Description: as §1

[10] = biological target: AURKB (Aurora B) (Homo sapiens, UniProt Q96GD4); assay: SelectScreen kinase profiling; type: biochemical
Sequence of AURKB (Aurora B) (Q96GD4 whole entry): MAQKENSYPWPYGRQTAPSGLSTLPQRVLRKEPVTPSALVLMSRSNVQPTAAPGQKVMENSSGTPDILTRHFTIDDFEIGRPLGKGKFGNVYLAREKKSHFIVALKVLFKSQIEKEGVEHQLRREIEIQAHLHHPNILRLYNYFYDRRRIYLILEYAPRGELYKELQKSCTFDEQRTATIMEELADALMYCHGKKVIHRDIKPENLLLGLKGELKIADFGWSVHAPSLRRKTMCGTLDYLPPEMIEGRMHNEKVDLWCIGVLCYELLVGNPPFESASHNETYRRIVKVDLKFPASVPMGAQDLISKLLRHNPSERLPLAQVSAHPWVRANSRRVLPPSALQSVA
Description: as §1

[11] = biological target: ABL1 (Homo sapiens, UniProt P00519); assay: SelectScreen kinase profiling; type: biochemical
Sequence of ABL1 (P00519 whole entry): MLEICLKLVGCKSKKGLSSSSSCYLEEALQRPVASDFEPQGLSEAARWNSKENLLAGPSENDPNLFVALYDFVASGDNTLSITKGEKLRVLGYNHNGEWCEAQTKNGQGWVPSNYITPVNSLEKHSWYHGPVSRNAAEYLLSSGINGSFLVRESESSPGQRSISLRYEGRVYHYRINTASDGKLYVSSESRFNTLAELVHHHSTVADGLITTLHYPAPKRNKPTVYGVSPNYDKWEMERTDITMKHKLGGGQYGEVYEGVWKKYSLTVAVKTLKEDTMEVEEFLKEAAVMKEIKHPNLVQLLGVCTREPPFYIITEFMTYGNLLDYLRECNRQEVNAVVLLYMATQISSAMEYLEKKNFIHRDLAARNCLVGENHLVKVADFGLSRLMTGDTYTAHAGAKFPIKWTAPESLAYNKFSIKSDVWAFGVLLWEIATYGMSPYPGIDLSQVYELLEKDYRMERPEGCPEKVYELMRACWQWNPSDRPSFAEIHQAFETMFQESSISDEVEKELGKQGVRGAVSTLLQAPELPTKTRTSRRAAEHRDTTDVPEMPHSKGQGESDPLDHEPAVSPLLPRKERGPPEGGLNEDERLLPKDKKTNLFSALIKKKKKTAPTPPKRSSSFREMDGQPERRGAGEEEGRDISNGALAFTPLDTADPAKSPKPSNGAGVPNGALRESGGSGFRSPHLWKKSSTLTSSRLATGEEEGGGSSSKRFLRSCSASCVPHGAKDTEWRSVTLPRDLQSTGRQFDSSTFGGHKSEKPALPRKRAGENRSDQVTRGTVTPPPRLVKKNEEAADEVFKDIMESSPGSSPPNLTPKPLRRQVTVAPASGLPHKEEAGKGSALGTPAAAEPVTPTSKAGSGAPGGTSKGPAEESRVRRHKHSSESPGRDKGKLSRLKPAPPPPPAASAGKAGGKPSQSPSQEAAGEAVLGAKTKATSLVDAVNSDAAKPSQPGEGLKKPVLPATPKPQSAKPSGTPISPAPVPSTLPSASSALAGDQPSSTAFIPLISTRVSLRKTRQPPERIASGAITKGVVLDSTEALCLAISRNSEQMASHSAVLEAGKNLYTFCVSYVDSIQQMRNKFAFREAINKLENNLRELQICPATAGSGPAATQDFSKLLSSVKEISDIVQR
Description: as §1

[12] = biological target: T3, Src kinase (Homo sapiens, UniProt P12931); assay: Z'-LYTE kinase assay (Invitrogen), Src; type: biochemical; design: full-length kinase in the Z-LYTE assay vs. kinase domain in the current study; purchased Millipore
T3 sequence (P12931 whole entry, the tested form may be a part): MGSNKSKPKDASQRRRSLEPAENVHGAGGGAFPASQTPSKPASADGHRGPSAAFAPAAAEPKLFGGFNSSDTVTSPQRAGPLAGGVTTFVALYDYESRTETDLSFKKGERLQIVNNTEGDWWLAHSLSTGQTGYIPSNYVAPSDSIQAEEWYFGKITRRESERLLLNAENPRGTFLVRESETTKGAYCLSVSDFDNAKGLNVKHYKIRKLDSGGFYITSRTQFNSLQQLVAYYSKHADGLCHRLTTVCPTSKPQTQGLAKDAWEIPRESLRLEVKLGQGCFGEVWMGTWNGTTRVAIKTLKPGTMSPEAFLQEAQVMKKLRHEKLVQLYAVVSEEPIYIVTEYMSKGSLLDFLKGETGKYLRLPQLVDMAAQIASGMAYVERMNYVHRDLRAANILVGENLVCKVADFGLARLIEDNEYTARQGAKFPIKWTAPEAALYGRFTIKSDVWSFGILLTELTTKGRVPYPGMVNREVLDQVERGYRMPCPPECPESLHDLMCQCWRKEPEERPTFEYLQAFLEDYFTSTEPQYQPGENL
Description: Nine macrocycles enriched in the Src selection (FIG. 5) and synthesized as described above were assayed in vitro for the ability to inhibit Src kinase activity. Kinase activity was assayed in the presence of varying concentrations of macrocycle using the FRET-based Z′-LYTE assay (Invitrogen).
as §1

[13] = biological target: T4, Abl (Homo sapiens, UniProt P00519); assay: Continuous spectrophotometric kinase activity assay; type: biochemical
T4 construct: human c-Abl (residues 229-512); made in house
T4 sequence (P00519 229-512): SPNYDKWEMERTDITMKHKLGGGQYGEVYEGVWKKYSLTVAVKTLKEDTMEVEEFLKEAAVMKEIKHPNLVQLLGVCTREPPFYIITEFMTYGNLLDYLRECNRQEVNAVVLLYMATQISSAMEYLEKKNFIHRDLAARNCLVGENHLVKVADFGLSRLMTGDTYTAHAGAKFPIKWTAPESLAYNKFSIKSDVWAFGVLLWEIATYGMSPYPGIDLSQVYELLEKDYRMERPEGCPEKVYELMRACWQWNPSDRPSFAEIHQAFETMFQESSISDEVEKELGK
From the text: as §2, §3, §4

[14] = biological target: T5, Src kinase domain (chicken c-Src residues 251-533) (Gallus gallus, UniProt P00523); assay: as above; type: biochemical; settings: for IC50: Src kinase domain
T5 construct: chicken c-Src (residues 251-533 and residues 83-533); made in house
From the text: as §2, §3, §4

[15] = biological target: T6, Src kinase domain (Gallus gallus, UniProt P00523); assay: Fluorescence anisotropy binding assay; design: species or system chicken; settings: fluorescein-labeled macrocycle, read-out: dissociation constant (KD)
T6 construct: chicken c-Src (residues 251-533 and residues 83-533); made in house
Description: The change in fluorescence anisotropy of fluorescein-labeled MC1, MC4 and MC9 at 518 nm upon excitation at 492 nm was monitored with a HORIBA Jobin Yvon FluoroMax-4 (Edison, N.J.) spectrofluorimeter. Kinase was titrated to 0.5 μM of the fluorescently labeled macrocycle in 100 mM Tris pH 8.0, 10 mM MgCl2 at 25° C. After equilibration, the increase in the fluorescence anisotropy of the fluorescently labeled ligand was recorded and fitted against a quadratic binding equation in Kaleidagraph (Synergy Software, Reading Pa.) to yield the dissociation constant KD.
To clarify the inhibitory mechanism of the compounds further, the binding affinity of fluorescently labeled MC1, MC4, and MC9 to Src kinase domain was determined in a fluorescence anisotropy assay (FIG. 21).

[16] = biological target: T7, Lck (Mus musculus, UniProt P06240); assay: Continuous spectrophotometric kinase activity assay; type: biochemical, murine
T7 construct: murine Lck (residues 227-509); made in house
T7 sequence (P06240 227-509): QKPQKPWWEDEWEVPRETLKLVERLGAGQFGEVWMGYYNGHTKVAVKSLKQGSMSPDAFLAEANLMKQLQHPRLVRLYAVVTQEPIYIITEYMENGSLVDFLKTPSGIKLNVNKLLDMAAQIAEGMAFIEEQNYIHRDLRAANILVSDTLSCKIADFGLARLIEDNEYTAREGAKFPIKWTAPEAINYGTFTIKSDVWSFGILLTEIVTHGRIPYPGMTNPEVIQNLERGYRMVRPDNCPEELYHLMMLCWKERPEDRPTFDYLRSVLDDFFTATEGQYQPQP
From the text: as §2, §3, §4

[17] = biological target: T3, Src kinase; assay: In vitro selection of DNA-templated macrocycle library against GST-fused target; type: binding; settings: one round of selection; DNA-linked library member
From the text: (§5) Multiple representatives were chosen from each protein class so that we could compare selection results within protein families. In total, we performed a single round of in vitro selection against 36 protein targets. Additionally, we also performed a selection for binding to GST (with no fused target protein) immobilized on glutathione-linked resin. Although successive rounds of selection (with or without DNA amplification and translation between rounds) can multiply net enrichment factors,^29 we hypothesized that recent advances in ultra high-throughput DNA sequencing would enable even modest enrichment factors to be robustly detected, and the findings in this work are the result of a single round of selection on each protein target.
(§6) Following in vitro selection, DNA templates linked to target-binding macrocycles were amplified in PCR reactions using primers containing “barcode” sequences specific to each selection (FIG. 3). We also amplified DNA templates from eight aliquots of the unselected library to determine the initial abundance of each library member. A set of 12 five-base barcodes used in pairwise combinations provided sufficient encoding complexity for one round of selection against 36 protein targets, a control selection against immobilized GST, and eight pre-selection library samples (Table 3). These barcodes were designed to differ by at least three bases from one another so that common DNA sequencing errors would not preclude barcode assignment. After affinity selection and PCR amplification, barcoded samples were combined in equimolar amounts and submitted for ultra high-throughput DNA sequencing^46,47 as a single sample.
(§7) To rapidly identify the DNA-linked macrocycles that survived target affinity selection, we used Solexa (Illumina) DNA sequencing technology.^48 Because standard Solexa sequencing read lengths at the time of this experiment were shorter than the length of our barcoded library templates (84 base pairs), the paired-end sequencing method, which provides both forward and reverse sequencing reads for each template, was used. We created a PERL computer program to analyze the large amount of data emerging from high-throughput sequencing. First, forward and reverse sequence reads were merged to give complete template sequences (FIG. 4a). Each complete DNA sequence was converted into a combination of a barcode (selection identity) and three codons (building block identities). Template sequences were then binned by barcode to deconvolute the results of each selection. The abundance fraction of each library member was determined within each selection by counting the number of corresponding DNA sequence occurrences and dividing by the total number of interpretable sequence reads for that selection. Finally, enrichment factors for each library member were computed by dividing post-selection abundance fraction by pre-selection abundance fraction. In total, we received 25.6 million paired forward and reverse sequence reads from two Solexa sequencing runs. Of these, all four codons (which require five out of six correct bases per codon for the building blocks, and three out of three correct bases per codon for the scaffold^24) and the selection barcode (which requires four out of five correct bases) could be conclusively assigned for 12.4 million sequences. As a result, we obtained ˜200,000 sequence reads for each selection, and 1.7 million sequence reads of the pre-selection library.
(§8) In vitro selections of the 13,824-membered library were conducted exactly as described above for the positive control selections. For each selection, 5 pmol of library were used. PCR amplification of selection survivors was performed with 5′-barcoded forward and reverse primers. Barcoded PCR amplicons were quantitated using Picogreen dsDNA quantitation reagent (Invitrogen), mixed in equimolar amounts, and submitted for high-throughput DNA sequencing.

[18] = biological target: Pim1 (Homo sapiens, UniProt P11309); assay: as above; type: binding; settings: one round of selection; DNA-linked library member
Sequence of Pim1 (P11309 whole entry): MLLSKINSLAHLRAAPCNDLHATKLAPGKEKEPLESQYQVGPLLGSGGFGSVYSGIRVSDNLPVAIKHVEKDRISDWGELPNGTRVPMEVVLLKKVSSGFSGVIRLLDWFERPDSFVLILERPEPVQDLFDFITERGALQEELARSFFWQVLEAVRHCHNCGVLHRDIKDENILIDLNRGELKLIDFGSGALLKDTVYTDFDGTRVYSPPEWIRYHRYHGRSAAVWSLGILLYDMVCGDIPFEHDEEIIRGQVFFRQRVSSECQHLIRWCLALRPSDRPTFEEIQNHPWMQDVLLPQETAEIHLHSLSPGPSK
From the text: as §5, §6, §7, §8

[19] = biological target: MAPKAPK2 (Homo sapiens, UniProt P49137); assay: as above; type: binding; settings: one round of selection; DNA-linked library member
Sequence of MAPKAPK2 (P49137 whole entry): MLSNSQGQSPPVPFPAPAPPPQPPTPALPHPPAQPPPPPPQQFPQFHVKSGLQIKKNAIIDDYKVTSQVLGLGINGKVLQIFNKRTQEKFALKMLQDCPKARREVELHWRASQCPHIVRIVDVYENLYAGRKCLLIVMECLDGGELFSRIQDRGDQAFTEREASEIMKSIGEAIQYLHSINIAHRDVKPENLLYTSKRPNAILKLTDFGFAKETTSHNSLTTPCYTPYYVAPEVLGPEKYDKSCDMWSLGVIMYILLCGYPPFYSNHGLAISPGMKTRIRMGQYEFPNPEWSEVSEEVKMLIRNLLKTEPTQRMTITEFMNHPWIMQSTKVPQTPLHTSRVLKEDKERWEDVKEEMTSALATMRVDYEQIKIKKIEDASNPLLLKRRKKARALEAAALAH
From the text: as §5, §6, §7, §8

[20] = 5 μM ATP, 100 μM Src optimal peptide
[21] = 5 μM ATP, 300 μM Src optimal peptide
[22] = 250 μM ATP, 300 μM Src optimal peptide

Molecule: CN[C@@H]1C[C@H]2O[C@@](C)([C@@H]1OC)n1c3ccccc3c3c4c(c5c6ccccc6n2c5c31)C(=O)NC4 [staurosporine]
selectivity score [1]: 0.50

Enrichment Factor [2]: 200
Molecule: Bak peptide (DNA-linked)

Molecule: NC(=O)[C@@H]1CCNC(=O)[C@H](CCCNC(=O)c2cnccn2)NC(=O)[C@H](Cc2ccco2)NC(=O)[C@H](CC2CC2)NC(=O)/C=C\C(=O)N1 [cis-A11-B1-C5-D7]
selectivity for Src over all remaining Src-family kinases with the exception of Fgr [3]: > 10 fold
selectivity score ([3]; fraction of non-target kinases with IC50 within 10-fold of Src IC50 (960 nM)): 0.05
IC50 [4, 20]: > 100 µM
IC50 [4, 21]: > 100 µM
IC50 [4, 22]: > 100 µM
IC50 ([5]; Aurora A, 10-point titration): 1.7 µM
IC50 [6]: 5.7 µM
selectivity for Src over Fyn [7]: > 50 fold
selectivity for Src over Hck [8]: > 50 fold
IC50 [9]: 4 µM
selectivity for Aurora A over Aurora B [10]: > 50 fold
selectivity for Src over Abl kinase [11]: > 50 fold
IC50 ([12]; Z'-LYTE, ATP near KM): 0.96 µM
mode of Src inhibition ([12]; apparent KM for ATP versus macrocycle concentration): ATP-competitive
IC50 [13, 20]: > 100 µM
IC50 [13, 21]: > 100 µM
IC50 [13, 22]: > 100 µM
IC50 [14, 20]: 16 µM
IC50 [14, 21]: 26 µM
IC50 [14, 22]: 89 µM
increase in IC50 upon increasing substrate peptide 3-fold to 300 μM ([14]; Src optimal substrate peptide 100 to 300 μM): 50%
Kd ([15]; 250 μM AMP-PNP): 3.3 µM
Kd ([15]; no competitor): 2.1 µM
IC50 [16, 20]: > 100 µM
IC50 [16, 21]: > 100 µM
IC50 [16, 22]: > 100 µM

enrichment factor after selection against Src kinase [17]: 62 fold
selectivity for Aurora A among the Aurora family [5]: > 100 fold
selectivity for Src over Abl kinase [11]: > 50 fold
difference in potency between cis and trans stereoisomers (Src) [12]: ~10 fold
Molecule: NC(=O)[C@@H]1CCNC(=O)[C@H](CCCNC(=O)c2cnccn2)NC(=O)[C@H](Cc2ccco2)NC(=O)[C@H](CC2CC2)NC(=O)C=CC(=O)N1 [Macrocycle A11-B1-C5-D7]

Molecule: NC(=O)[C@@H]1CNC(=O)C=CC(=O)N[C@@H](C/C=C/c2ccccc2)C(=O)N[C@@H](CC2CCCCC2)C(=O)N[C@H](Cc2ccc(C(=O)c3ccccc3)cc2)C(=O)N1 [A12-B8-C10-D4]
enrichment upon selection for binding Pim1 [18]: 10 fold
enrichment upon selection for binding MAPKAPK2 [19]: 3 fold

Molecule: NC(=O)[C@@H]1CNC(=O)[C@@H](Cc2ccc(C(=O)c3ccccc3)cc2)NC(=O)[C@H](CC2CCCCC2)NC(=O)[C@H](C/C=C/c2ccccc2)NC(=O)C=CC(=O)N1 [A12-B8-C10-D8]
enrichment upon selection for binding Pim1 [18]: 6 fold
enrichment upon selection for binding MAPKAPK2 [19]: 2.5 fold

Molecule: NC(=O)[C@@H]1CCNC(=O)C=CC(=O)N[C@@H](C/C=C/c2ccccc2)C(=O)N[C@@H](CC2CCCCC2)C(=O)N[C@H](Cc2ccc(C(=O)c3ccccc3)cc2)C(=O)N1 [A12-B8-C10-D3]
enrichment upon selection for binding Pim1 [18]: 3.5 fold
enrichment upon selection for binding MAPKAPK2 [19]: 3 fold

From patent publication US8975232B2, “Macrocyclic kinase inhibitors and uses thereof” (President and Fellows of Harvard College, priority 2010, dated 2015)
